Several values for one entry are separate records, joined by “and”; a condition that tells them apart may be missing. Identical values can stand only once.
Key:
[1] = system: ZBP1; assay: ZBP1 protein in PVECs cocultured with neutrophils, Western blot; format: cell-based, mouse; details: for ZBP1 protein level (Figure 4F): 10 μM peptide, 16 h, individual replicates
Description: (§1) Wild-type PVECs (5 × 10^5) were cocultured with sorted DLL4^+ neutrophils (5 × 10^5) or DLL4^– neutrophils (5 × 10^5) and then treated with different dosages of peptides or 10 μM DAPT (Thermo Fisher Scientific), 10 μM NDI (GenScript), or 10 μM NDI scramble (GenScript). Notch1-knockdown PVECs (5 × 10^5) were cocultured with sorted DLL4^+ neutrophils (5 × 10^5). After 16 hours, neutrophils were washed away by PBS, and PVECs were collected for further experiments. Cell viability was evaluated by propidium iodide staining using the FITC Annexin V Apoptosis Detection Kit I (catalog 556547, BD Pharmingen). Cell death was quantified as the percentage of propidium iodide–positive cells by flow cytometry.
(§2) PVECs and lung tissue were collected in previous steps. Whole-cell proteins were extracted, and the protein concentration was measured using an ABC protein assay kit (catalog 5000002, Bio-Rad). Proteins were separated using NuPAGE 4%–12% Bis-Tris gels (Invitrogen), transferred to PVDF membranes, and immunoblotted with the antibodies indicated in the figure legends according to the manufacturer’s recommendations. The ZBP1 antibody (catalog PA5-20455; 1:1,000) used in this study was obtained from Thermo Fisher Scientific, and the c-GSDMD (catalog 10137S; 1:250), GSDMD (catalog 39754S; 1:1000), c-caspase-3 (catalog 9661L; 1:250), caspase-3 (catalog 9662S; 1:1,000), p-MLKL (catalog 37333S; 1:250), MLKL (catalog 37705S; 1:1,000), N1ICD (c-Notch1) (catalog 4147S; 1:250), and Notch1 (catalog 3608S; 1:1,000) antibodies were obtained from Cell Signaling Technology. GAPDH (catalog 60004-1-Ig; 1:10,000) and β-actin (catalog A5441, Sigma-Aldrich; 1:5,000) were obtained from ProteinTech. After the blots were incubated with primary antibodies, the membranes were washed 3 times, and the blots were subsequently incubated with the corresponding fluorescent secondary antibody (LI-COR). Bands were detected using an Odyssey FC Dual-Mode Imaging system 2800 (LI-COR).

[2] = system: c-GSDMD; assay: c/t GSDMD (pyroptosis) in PVECs cocultured with neutrophils, Western blot; format: cell-based, mouse; details: for c/t GSDMD (Figure 4G): 10 μM peptide, 16 h, individual replicates
Description: as §1, §2

[3] = system: c-GSDMD; assay: c/t GSDMD in lungs of CLP mice, Western blot; format: in vivo, mouse; details: 10 mg/kg NDI, 20 h; for lung c/t GSDMD (Figure 5D): individual mice, 10 mg/kg
Description: (§3) Sepsis was induced in mice by cecal ligation and puncture (CLP) as described previously ([45], [46]). Mice were anesthetized with isoflurane to a surgical plane and placed in a supine position. CLP was performed through a midline laparotomy. The abdomen was shaved and disinfected. Through a 2 cm midline incision, the cecum was exposed and then ligated with a 4-0 silk suture 1 cm proximal from the distal cecal extremity. For 20-hour CLP experiments, the cecum was punctured twice with a 22-gauge needle. A small amount of cecal content was extruded through both holes, and the ligated cecum was returned to the peritoneal cavity. The wound was closed in layers. For 10-day sepsis survival studies, the cecum was punctured once with a 22-gauge needle. A small amount of cecal content was extruded. Mice were allocated to the vehicle and adoptive transfer of DLL4^+ neutrophils or DLL4^– neutrophils groups. Adoptive transfer mice received a retro-orbital injection of 1 × 10^6 cells per mouse DLL4^+ neutrophils or DLL4^– neutrophils in […] phosphate-buffered saline (PBS) immediately after abdominal closure in both the 20-hour experiments and the survival study. Vehicle groups received an equivalent volume of PBS, while treatment groups received NDI 10 mg/kg in […] PBS via retro-orbital injection after CLP. This dose was chosen primarily on the basis of our laboratory’s prior experience, we have consistently used this dose in mouse CLP models with reproducible efficacy and without observable toxicity ([39], [44]). Sham-operated animals underwent a laparotomy without CLP. After closure, the mice received a subcutaneous injection of 0.5 mL of normal saline to overcome surgery-induced dehydration. […]
PVECs and lung tissue were collected in previous steps. Whole-cell proteins were extracted, and the protein concentration was measured using an ABC protein assay kit (catalog 5000002, Bio-Rad). […] Bands were detected using an Odyssey FC Dual-Mode Imaging system 2800 (LI-COR).

[4] = system: C57BL/6 mice, CLP sepsis; assay: Serum alanine aminotransferase (ALT), CLP mice; format: in vivo, mouse; set-up: serum ALT (Figure 6A): unit not given here; details: 20 h; for serum ALT (Figure 6A): 10 mg/kg NDI, individual mice
Description: Sepsis was induced in mice by cecal ligation and puncture (CLP) as described previously ([45], [46]). Mice were anesthetized with isoflurane to a surgical plane and placed in a supine position. CLP was performed through a midline laparotomy. The abdomen was shaved and disinfected. Through a 2 cm midline incision, the cecum was exposed and then ligated with a 4-0 silk suture 1 cm proximal from the distal cecal extremity. […] A small amount of cecal content was extruded through both holes, and the ligated cecum was returned to the peritoneal cavity. The wound was closed in layers. […] A small amount of cecal content was extruded. […] Vehicle groups received an equivalent volume of PBS, while treatment groups received NDI 10 mg/kg in […] PBS via retro-orbital injection after CLP. This dose was chosen primarily on the basis of our laboratory’s prior experience, we have consistently used this dose in mouse CLP models with reproducible efficacy and without observable toxicity ([39], [44]). Sham-operated animals underwent a laparotomy without CLP. After closure, the mice received a subcutaneous injection of 0.5 mL of normal saline to overcome surgery-induced dehydration. […] All mice were subcutaneously injected with a single dose of 0.1 mg/kg buprenorphine after CLP. Serum levels of alanine aminotransferase, aspartate aminotransferase, and lactate dehydrogenase were determined using specific colorimetric enzymatic assays (Pointe Scientific Inc.) according to the manufacturer’s instructions.

[5] = system: TNF-α; assay: Lung TNF-α mRNA, CLP mice; format: in vivo, mouse; details: 20 h; for lung TNF-α mRNA (Figure 6F): 10 mg/kg NDI, vs sham, individual mice
Description: as §3, with “dehydration. For 20-hour experiments, animals were not injected with antibiotics; however, for survival studies, animals were given 0.5 mg per kg body weight imipenem (lot 4D21K05, WG Critical Care LLC) subcutaneously in 0.5 mL saline once at the end of CLP. All mice were subcutaneously injected with a single dose of 0.1 mg/kg buprenorphine after CLP.” for “dehydration.”

[6] = 10 μM NDI, DLL4^+ neutrophil coculture
[7] = DLL4^+ neutrophil-injected CLP mice, 10 mg/kg

Sequence: ECAGSPCHNGGTCEDGI [NDI]
- effect on ZBP1 protein [1, 6]: significantly attenuated by NDI treatment
- effect on ZBP1, c-GSDMD, c-caspase-3, and p-MLKL ([1]; 10 μM NDI, DLL4^– neutrophil coculture): less effect on the DLL4^– neutrophil coculture group
- ZBP1 protein level (Figure 4F) ([1]; DLL4^+ neutrophil coculture): 3.384 and 1.384 and 0.9406 and 0.8744 and 0.4031 and 0.6648 and 0.9901 and 0.7708 and 1.063 and 1.037 and 1.784 and 1.376 and 1.24 and 1.14
- ZBP1 protein level (Figure 4F) ([1]; DLL4^– neutrophil coculture): 1.4609 and 1.716 and 1.338 and 0.9958 and 0.6394
- effect on c-GSDMD [2, 6]: significantly reduced these markers of PANoptosis
- c/t GSDMD (Figure 4G) ([2]; DLL4^+ neutrophil coculture): 1.2879 and 0.9868 and 1.126 and 1.624 and 1.978 and 2.103 and 0.1622 and 0.328 and 1.184
- c/t GSDMD (Figure 4G) ([2]; DLL4^– neutrophil coculture): 0.692 and 1.126 and 1.001 and 1.013 and 0.9854 and 1.021
- lung c/t GSDMD (Figure 5D) ([3]; DLL4^+ neutrophils + CLP): 2.146 and 1.894 and 1.978 and 1.095 and 1.287 and 1.8342
- effect on lung c-GSDMD ([3]; DLL4^+ neutrophils/sepsis): attenuated the expression/activation
- lung c/t GSDMD (Figure 5D) ([3]; DLL4^– neutrophils + CLP): 1.599 and 0.7489 and 0.6289 and 1.139 and 1.05
- effect on serum ALT [4, 7]: significantly reduced the serum levels of hepatic and cell injury markers and proinflammatory cytokines
- serum ALT (Figure 6A) ([4]; DLL4^+ neutrophils + CLP): 41.99 and 15.47 and 55.25 and 44.642 and 25.194 and 38.454 and 50.83 and 38.896 and 29.172 and 10.94 and 28.288 and 3.978 and 26.078 and 2.21
- serum ALT (Figure 6A) ([4]; DLL4^– neutrophils + CLP): 37.57 and 15.028 and 26.52 and 77.35 and 30.94 and 22.1 and 12.818 and 10.608
- effect on lung TNF-α mRNA [5, 7]: significantly decreased the mRNA expression of TNF-α, IL-6, and KC in lung tissues
- lung TNF-α mRNA (Figure 6F) ([5]; DLL4^+ neutrophils + CLP): 4.255 fold change and 2.291 fold change and 5.674 fold change and 4.568 fold change and 3.143 fold change and 2.408 fold change and 0.5968 fold change and 4.125 fold change and 0.8652 fold change and 4.064 fold change and 0.4766 fold change and 9.1932 fold change and 5.227 fold change and 8.424 fold change
- lung TNF-α mRNA (Figure 6F) ([5]; DLL4^– neutrophils + CLP): 8.678 fold change and 9.157 fold change and 5.574 fold change and 9.371 fold change and 6.524 fold change and 4.342 fold change and 3.267 fold change and 5.109 fold change and 7.731 fold change

— paper PMC12700550, “DLL4^+ neutrophils promote Notch1-mediated endothelial PANoptosis to exacerbate acute lung injury in sepsis” (The Journal of Clinical Investigation, 2025)
